Legend:
Assay in all cases: MIC by broth microdilution (NCCLS M7-A5)
[1] = tested on: Acinetobacter baumannii J51; assay type: cell-based
Description: Antimicrobial activity of the compounds and of their combinations was determined against a selection of organisms according to the standard procedures described by the National Committee for Clinical Laboratory Standards (National Committee for Clinical Laboratory. Standards (2000). Methods for Dilution Antimicrobial Susceptibility Tests for Bacteria That Grow Aerobically-Fifth Edition: Approved Standard M7-A5. NCCLS, Wayne, Pa., USA).
In all cases the final concentration of DMSO incubated with the bacteria is less than or equal to 1%. […] Plates were incubated overnight at an appropriate temperature (30° C. or 37° C.) and optical densities assessed by eye. The MIC value is defined as the lowest compound concentration completely inhibiting visible growth of the test organism. When combinations between compounds of formula I with compounds of formula II and are evaluated the compounds of formula I are tested in dilution series as described above while the compounds of formula II and III-XIII were present in all wells at a constant concentration of 4 μg/mL each.

[2] = tested on: Enterobacter aerogenes Zayakosky; settings: Enterobacter aerogenes Zayakosky 5
Acinetobacter sp. J2 = settings: Acinetobacter baumannii J2
[3] = tested on: Pseudomonas aeruginosa MK1184
[4] = tested on: Pseudomonas aeruginosa 1973E
Enterobacter cloacae P99 = tested on: Enterobacter cloacae P99
[5] = tested on: Klebsiella pneumoniae CF104
Serratia marcescens S6 = tested on: Serratia marcescens S6
[6] = tested on: Stenotrophomonas malthophilia 1AC736; settings: Stenotrophomonas maltophilia 1AC736

MIC of antibiotic ([1]; + 324 4 mg/L): 2 µg/mL | MIC of antibiotic ([1]; + BRL427158 4 mg/L): 32 µg/mL | MIC of antibiotic ([1]; + clavulanic acid 4 mg/L): 1 µg/mL | MIC of antibiotic ([1]; antibiotic alone): 4 µg/mL | MIC of antibiotic ([2]; + 324 4 mg/L): 4 µg/mL | MIC of antibiotic ([2]; + BRL427158 4 mg/L): 0.5 µg/mL | MIC of antibiotic ([2]; + clavulanic acid 4 mg/L): 8 µg/mL | MIC of antibiotic ([2]; antibiotic alone): 16 µg/mL | MIC of antibiotic (Acinetobacter sp. J2; + 324 4 mg/L): 4 µg/mL | MIC of antibiotic (Acinetobacter sp. J2; + 324 + sulbactam, 4 mg/L each): 2 µg/mL | MIC of antibiotic (Acinetobacter sp. J2; + BRL427158 4 mg/L): 0.5 µg/mL | MIC of antibiotic (Acinetobacter sp. J2; + clavulanate 4 mg/L): >32 µg/mL | MIC of antibiotic (Acinetobacter sp. J2; antibiotic alone): 4 µg/mL | MIC of antibiotic ([3]; + 324 4 mg/L): 4 µg/mL | MIC of antibiotic ([3]; + 324 + sulbactam, 4 mg/L each): 2 µg/mL | MIC of antibiotic ([3]; + BRL427158 4 mg/L): 2 µg/mL | MIC of antibiotic ([3]; + clavulanate 4 mg/L): 4 µg/mL | MIC of antibiotic ([3]; antibiotic alone): 2 µg/mL | MIC of antibiotic ([4]; + 324 4 mg/L): 4 µg/mL | MIC of antibiotic ([4]; + 324 + sulbactam, 4 mg/L each): 2 µg/mL | MIC of antibiotic ([4]; + BRL427158 4 mg/L): 2 µg/mL | MIC of antibiotic ([4]; + clavulanate 4 mg/L): 2 µg/mL | MIC of antibiotic ([4]; antibiotic alone): 16 µg/mL | MIC of antibiotic (Enterobacter cloacae P99; + 324 4 mg/L): 2 µg/mL | MIC of antibiotic (Enterobacter cloacae P99; + 324 + sulbactam, 4 mg/L each): 2 µg/mL | MIC of antibiotic (Enterobacter cloacae P99; + BRL427158 4 mg/L): 2 µg/mL | MIC of antibiotic (Enterobacter cloacae P99; + clavulanate 4 mg/L): 8 µg/mL | MIC of antibiotic (Enterobacter cloacae P99; antibiotic alone): 16 µg/mL | MIC of antibiotic ([5]; + 324 4 mg/L): 16 µg/mL | MIC of antibiotic ([5]; + 324 + sulbactam, 4 mg/L each): 1 µg/mL | MIC of antibiotic ([5]; + BRL427158 4 mg/L): 0.125 µg/mL | MIC of antibiotic ([5]; + clavulanate 4 mg/L): 0.5 µg/mL | MIC of antibiotic ([5]; antibiotic alone): 32 µg/mL | MIC of antibiotic (Serratia marcescens S6; + 324 4 mg/L): ≦0.06 mg/L | MIC of antibiotic (Serratia marcescens S6; + 324 + sulbactam, 4 mg/L each): <0.06 µg/mL | MIC of antibiotic (Serratia marcescens S6; + BRL427158 4 mg/L): ≦0.06 mg/L | MIC of antibiotic (Serratia marcescens S6; + clavulanate 4 mg/L): ≦0.06 mg/L | MIC of antibiotic (Serratia marcescens S6; antibiotic alone): <0.06 µg/mL | MIC of antibiotic ([6]; + 324 4 mg/L): 0.25 µg/mL | MIC of antibiotic ([6]; + 324 + sulbactam, 4 mg/L each): 0.25 µg/mL | MIC of antibiotic ([6]; + BRL427158 4 mg/L): 0.125 µg/mL | MIC of antibiotic ([6]; + clavulanate 4 mg/L): ≦0.06 mg/L | MIC of antibiotic ([6]; antibiotic alone): <0.06 µg/mL
Compound: CC1(C)[C@H](NC(=O)/C(=N\OCc2cc(=O)c(O)cn2O)c2csc(N)n2)C(=O)N1OS(=O)(=O)O [Compound 26, (3S)-3-{(2Z)-2-(2-amino(1,3-thiazol-4-yl))-3-[(1,5-dihydroxy-4-oxo(2-hydropyridyl))methoxy]-3-azaprop-2-enoylamino}-4,4-dimethyl-2-oxoazetidinyl hydroxysulfonate]

— US9346799B2, “Useful combinations of monobactam antibiotics with beta-lactamase inhibitors” (Basilea Pharmaceutica AG, priority 2005, dated 2016)
